Where “and” joins values, the source holds several entries; their conditions need not be identical. Equal values may be shown once. Inconclusive results and toxic doses are left out.

The record followed here is PubChem BioAssay AID330 (DTP/NCI, 2004).

The experiment concerns P388 leukemia ip, CD2F1 mice, survival T/C. As to the kind of experiment: NCI In Vivo Anticancer Drug Screen. Data for tumor model P388 Leukemia (intraperitoneal) in CD2F1 (CDF1) mice. The settings on record: endpoint: median survival time, higher = longer survival. The method in brief:
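Mice carrying the transplanted tumor received test compound or vehicle. Survival was recorded in each group, and the value is the treated-group measurement divided by that of the vehicle-treated control group.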

Where [1] appears, read: dose: 60.0 mg/kg/injection, schedule: Q01DX005 (ip), vehicle: saline.
The mark [2] stands for this setting: dose: 120.0 mg/kg/injection, schedule: Q01DX005 (ip), vehicle: saline.
[3] abbreviates: dose: 50.0 mg/kg/injection, schedule: Q01DX009 (ip), vehicle: saline with Tween-80.
The mark [4] stands for this setting: dose: 50.0 mg/kg/injection, schedule: Q01DX009 (ip), vehicle: Klucel (hydroxypropylcellulose) (HPC).
[5] abbreviates: dose: 100.0 mg/kg/injection, schedule: Q01DX009 (ip), vehicle: Klucel (hydroxypropylcellulose) (HPC).
The mark [6] stands for this setting: dose: 50.0 mg/kg/injection, schedule: Q01DX005 (ip), vehicle: saline with Tween-80.
Where [7] appears, read: dose: 100.0 mg/kg/injection, schedule: Q01DX005 (ip), vehicle: saline with Tween-80.
The mark [8] stands for this setting: dose: 200.0 mg/kg/injection, schedule: Q01DX005 (ip), vehicle: saline with Tween-80.
Where [9] appears, read: dose: 100.0 mg/kg/injection, schedule: Q01DX001 (ip), vehicle: saline.
Setting [10] is: dose: 200.0 mg/kg/injection, schedule: Q01DX001 (ip), vehicle: saline.
[11] abbreviates: dose: 400.0 mg/kg/injection, schedule: Q01DX001 (ip), vehicle: saline.
Setting [12] is: dose: 12.5 mg/kg/injection, schedule: Q01DX009 (ip), vehicle: water.
Setting [13] is: dose: 25.0 mg/kg/injection, schedule: Q01DX009 (ip), vehicle: water.
The mark [14] stands for this setting: dose: 50.0 mg/kg/injection, schedule: Q01DX009 (ip), vehicle: water.
The mark [15] stands for this setting: dose: 25.0 mg/kg/injection, schedule: Q01DX009 (ip), vehicle: Klucel (hydroxypropylcellulose) (HPC).
Setting [16] is: dose: 25.0 mg/kg/injection, schedule: Q01DX009 (ip), vehicle: saline.
[17] abbreviates: dose: 50.0 mg/kg/injection, schedule: Q01DX005 (ip), vehicle: Klucel (hydroxypropylcellulose) (HPC).
The mark [18] stands for this setting: dose: 200.0 mg/kg/injection, schedule: Q01DX005 (ip), vehicle: Klucel (hydroxypropylcellulose) (HPC).

For the molecule `CCOC(CC#CC(=O)N(C)C)OCC`, the T/C under setting [1] was 100 % of control; the T/C under setting [2] is 107 % of control; the T/C (dose: 240.0 mg/kg/injection, schedule: Q01DX005 (ip), vehicle: saline) is 101 % of control.
As for `CCCCC(SC(CC)(C(N)=O)c1ccccc1)C(=O)O` (centres undefined), the T/C was 108 % of control under setting [3]; 105 % of control (dose: 100.0 mg/kg/injection, schedule: Q01DX009 (ip), vehicle: saline with Tween-80); 106 % of control (dose: 200.0 mg/kg/injection, schedule: Q01DX009 (ip), vehicle: saline with Tween-80); 97 % of control (dose: 400.0 mg/kg/injection, schedule: Q01DX009 (ip), vehicle: saline with Tween-80).
With `CC(O)CCC(=O)c1ccoc1` (centres undefined), the T/C was 97 % of control (dose: 1.87 mg/kg/injection, schedule: Q01DX005 (ip), vehicle: saline); 100 % of control (dose: 3.75 mg/kg/injection, schedule: Q01DX005 (ip), vehicle: saline); 100 % of control and 96 % of control (dose: 7.5 mg/kg/injection, schedule: Q01DX005 (ip), vehicle: saline); 100 % of control and 93 % of control (dose: 15.0 mg/kg/injection, schedule: Q01DX005 (ip), vehicle: saline); 109 % of control (dose: 30.0 mg/kg/injection, schedule: Q01DX005 (ip), vehicle: saline).
Take `O=C(Nc1ccc2ccccc2c1)C1C(=O)C(=O)N(c2ccc3ccccc3c2)C1=O` (centres undefined): the T/C runs as follows: under setting [4], 106 % of control; under setting [5], 106 % of control; (dose: 200.0 mg/kg/injection, schedule: Q01DX009 (ip), vehicle: Klucel (hydroxypropylcellulose) (HPC)) 108 % of control.
In the case of `CC(=O)OCC(C)(C)COC1OCN(C(C)(C)C)CC1(C)C` (centres undefined), the T/C (dose: 10.0 mg/kg/injection, schedule: Q01DX009 (ip), vehicle: saline with Tween-80) was 94 % of control; the T/C (dose: 20.0 mg/kg/injection, schedule: Q01DX009 (ip), vehicle: saline with Tween-80) was 104 % of control; the T/C (dose: 40.0 mg/kg/injection, schedule: Q01DX009 (ip), vehicle: saline with Tween-80) is 110 % of control.
As to `COc1ccc(N=C(Cl)c2ccc(Br)cc2)cc1`, the T/C is, setting by setting: under setting [6], 97 % of control; under setting [7], 96 % of control; under setting [8], 96 % of control.
Consider `Cc1ncc(S(=O)(=O)Cc2ccc3c(c2)OCO3)c(N)n1`, for which the T/C reads like this: under setting [9], 96 % of control; under setting [10], 95 % of control; under setting [11], 95 % of control.
`O=C(O)CCSSCCCCS(=O)O`: the T/C was 114 % of control (dose: 50.0 mg/kg/injection, schedule: Q01DX005 (ip), vehicle: saline); 114 % of control (dose: 100.0 mg/kg/injection, schedule: Q01DX005 (ip), vehicle: saline); 100 % of control (dose: 200.0 mg/kg/injection, schedule: Q01DX005 (ip), vehicle: saline).
With `COc1cc2c(cc1OC)/C(=N/N)CCC2`, the T/C runs as follows: (dose: 3.13 mg/kg/injection, schedule: Q01DX009 (ip), vehicle: water) 100 % of control; (dose: 6.25 mg/kg/injection, schedule: Q01DX009 (ip), vehicle: water) 100 % of control; under setting [12], 95 % of control; under setting [13], 91 % of control; under setting [14], 91 % of control.
Turning to `COc1cc2c3c(c1OC)C(=O)C[C@@H]1CCCN(CC2)[C@H]31`, the T/C is 99 % of control (dose: 12.5 mg/kg/injection, schedule: Q01DX005 (ip), vehicle: Klucel (hydroxypropylcellulose) (HPC)) and 98 % of control (dose: 25.0 mg/kg/injection, schedule: Q01DX005 (ip), vehicle: Klucel (hydroxypropylcellulose) (HPC)).
`CC1(C)OCC(C2OC(C)(C)OC2C2COC(C)(C)O2)O1` (centres undefined): the T/C reads like this: (dose: 12.5 mg/kg/injection, schedule: Q01DX009 (ip), vehicle: Klucel (hydroxypropylcellulose) (HPC)) 105 % of control; under setting [15], 106 % of control; under setting [4], 108 % of control; under setting [5], 100 % of control.
As to `COc1cc(Cc2ccc3c(c2)OCO3)cc(OC)c1OC`, the T/C was 102 % of control under setting [9], 102 % of control under setting [10] and 99 % of control under setting [11].
Turning to `O=C(Nc1ccccc1)Oc1ccc[nH]c1=O`, the T/C under setting [15] is 117 % of control and 122 % of control; the T/C under setting [16] was 113 % of control and 120 % of control; the T/C under setting [4] was 117 % of control and 123 % of control; the T/C (dose: 50.0 mg/kg/injection, schedule: Q01DX009 (ip), vehicle: saline) was 118 % of control; the T/C under setting [5] was 87 % of control.
On to `COCCOCCOCCOCCOC(=O)CCn1cc(F)c(=O)[nH]c1=O`, for which the T/C was 99 % of control (dose: 45.0 mg/kg/injection, schedule: Q04DX002 (ip), vehicle: saline); 106 % of control (dose: 90.0 mg/kg/injection, schedule: Q04DX002 (ip), vehicle: saline); 101 % of control (dose: 180.0 mg/kg/injection, schedule: Q04DX002 (ip), vehicle: saline); 108 % of control (dose: 360.0 mg/kg/injection, schedule: Q04DX002 (ip), vehicle: saline).
As to `CN=C(N)N/N=C/COc1ccc(C)cc1`, the T/C is 92 % of control under setting [1] and 94 % of control under setting [2].
Consider `COc1ccc(-c2c(N3CCOCC3)oc3cc(N4CCOCC4)c(O)cc23)cc1`, for which the T/C is 100 % of control (dose: 25.0 mg/kg/injection, schedule: Q01DX005 (ip), vehicle: saline with Tween-80); 98 % of control under setting [6]; 100 % of control under setting [7]; 91 % of control under setting [8].
With `O=C1NC(O)(c2ccccc2)c2cnncc21` (centres undefined), the T/C by setting is: (dose: 60.0 mg/kg/injection, schedule: Q01DX005 (ip), vehicle: saline with Tween-80) 90 % of control; (dose: 120.0 mg/kg/injection, schedule: Q01DX005 (ip), vehicle: saline with Tween-80) 93 % of control; (dose: 240.0 mg/kg/injection, schedule: Q01DX005 (ip), vehicle: saline with Tween-80) 93 % of control.
Take `CN(CCC#N)c1ccc(/C=C(\C#N)c2cccc(C(F)(F)F)c2)cc1`: the T/C under setting [17] is 105 % of control; the T/C (dose: 100.0 mg/kg/injection, schedule: Q01DX005 (ip), vehicle: Klucel (hydroxypropylcellulose) (HPC)) was 90 % of control; the T/C under setting [18] is 96 % of control.
For the molecule `CC1=CC(C)CN(C)C1` (centres undefined), the T/C was 102 % of control (dose: 6.25 mg/kg/injection, schedule: Q01DX005 (ip), vehicle: saline); 100 % of control (dose: 12.5 mg/kg/injection, schedule: Q01DX005 (ip), vehicle: saline); 105 % of control (dose: 25.0 mg/kg/injection, schedule: Q01DX005 (ip), vehicle: saline).
Regarding `CNc1ncnc2[nH]ncc12`, the T/C was 100 % of control under setting [3] and 109 % of control (dose: 200.0 mg/kg/injection, schedule: Q04DX003 (ip), vehicle: saline sonified).
Turning to `Cc1c2cc(Cl)c3ccccc3c2c[n+]2ccccc12`, the T/C is 111 % of control (dose: 16.5 mg/kg/injection, schedule: Q01DX009 (ip), vehicle: saline); 121 % of control under setting [16]; 124 % of control (dose: 37.5 mg/kg/injection, schedule: Q01DX009 (ip), vehicle: saline); 113 % of control (dose: 50.0 mg/kg/injection, schedule: Q04DX003 (ip), vehicle: saline with Tween-80); 121 % of control and 123 % of control (dose: 100.0 mg/kg/injection, schedule: Q04DX003 (ip), vehicle: saline with Tween-80); 92 % of control (dose: 200.0 mg/kg/injection, schedule: Q04DX003 (ip), vehicle: saline with Tween-80). Where the note is “dose: 400.0 mg/kg/injection, schedule: Q04DX003 (ip), vehicle: saline with Tween-80”, the T/C was 108 % of control.
On to `O=S(=O)(OI(O)c1ccccc1)c1ccc(Cl)cc1`, for which the T/C is 101 % of control under setting [12]; 105 % of control under setting [13]; 109 % of control and 114 % of control under setting [14].
Turning to `Fc1ccc(C(Nc2nncs2)Nc2nncs2)cc1`, the T/C was 111 % of control under setting [17] and 152 % of control under setting [18].
